Source: ChEMBL document CHEMBL1201862, “PubChem BioAssay data set” (2004)
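The compound was tested at five concentrations on cells cultured in 96-well plates, with a 48-hour exposure period. Abbreviation: GI50, concentration required for 50% inhibition of growth.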 The source made the active and inactive calls. No stated cut-off is given here; in the data, active = GI50 up to about 1.1 µM and inactive = higher.

What was measured:
Experiment in all cases: NCI tumour cell line growth inhibition, 48 h
[1] = tested on: A498
[2] = tested on: MCF7
[3] = tested on: 786-0
[4] = tested on: SK-MEL-5
[5] = tested on: SW-620
[6] = tested on: RXF 393
[7] = tested on: UACC-62
[8] = tested on: A549
[9] = tested on: CAKI-1
[10] = tested on: Hs-578T
[11] = tested on: NCI-H23
[12] = tested on: HCT-116
[13] = tested on: UACC-257
[14] = tested on: U-251
[15] = tested on: OVCAR-4
[16] = tested on: SF-268
[17] = tested on: M14
[18] = tested on: SNB-75
[19] = tested on: SF-539
[20] = tested on: MDA-MB-231
[21] = tested on: KM12
[22] = tested on: DU-145
[23] = tested on: SF-295
[24] = tested on: NCI-H226
[25] = tested on: CCRF-CEM
[26] = tested on: TK-10
[27] = tested on: SNB-19
[28] = tested on: T47D
[29] = tested on: HCT-15
[30] = tested on: OVCAR-5
[31] = tested on: SR
[32] = tested on: HCC 2998
[33] = tested on: RPMI-8226
[34] = tested on: SK-MEL-28
[35] = tested on: ACHN
[36] = tested on: NCI/ADR-RES
[37] = tested on: MDA-MB-435
[38] = tested on: NCI-H522
[39] = tested on: COLO 205
[40] = tested on: IGROV-1
[41] = tested on: MOLT-4
[42] = tested on: HT-29
[43] = tested on: SK-OV-3
[44] = tested on: HOP-92
[45] = tested on: OVCAR-8
[46] = tested on: UO-31
[47] = tested on: EKVX
[48] = tested on: HL-60
[49] = tested on: LOX IMVI
[50] = tested on: K562
[51] = tested on: PC-3
[52] = tested on: OVCAR-3
[53] = tested on: MDA-N
[54] = tested on: SN12C
[55] = tested on: NCI-H460

## Cc1nnc2c3c(-c4ccccc4)c(-c4ccccc4)oc3nc(N(C)C)n12
[1]
  GI50: 65.2 µM (inactive)
[2]
  GI50: 33.3 µM (inactive)
[3]
  GI50: 90.4 µM (inactive)
[4]
  GI50: 35.2 µM (inactive)
[5]
  GI50: 44.6 µM (inactive)
[6]
  GI50: 73.5 µM (inactive)
[7]
  GI50: 39.2 µM (inactive)
[8]
  GI50: 37.2 µM (inactive)
[9]
  GI50: > 100 µM (inactive)
[10]
  GI50: 21.3 µM (inactive)
[11]
  GI50: 54.5 µM (inactive)
[12]
  GI50: 24.8 µM (inactive)
[13]
  GI50: 36.1 µM (inactive)
[14]
  GI50: 51.2 µM (inactive)
[15]
  GI50: > 100 µM (inactive)
[16]
  GI50: 39.5 µM (inactive)
[17]
  GI50: 61.2 µM (inactive)
[18]
  GI50: 15.5 µM (inactive)
[19]
  GI50: 86.5 µM (inactive)
[20]
  GI50: > 100 µM (inactive)
[21]
  GI50: 26.7 µM (inactive)
[22]
  GI50: > 100 µM (inactive)
[23]
  GI50: 37.6 µM (inactive)
[24]
  GI50: 96.6 µM (inactive)
[25]
  GI50: 29.6 µM (inactive)
[26]
  GI50: > 100 µM (inactive)
[27]
  GI50: > 100 µM (inactive)
[28]
  GI50: 83.6 µM (inactive)
[29]
  GI50: 23.7 µM
[30]
  GI50: 51.5 µM (inactive)
[31]
  GI50: 16.7 µM (inactive)
[32]
  GI50: 29.4 µM (inactive)
[33]
  GI50: 20.1 µM (inactive)
[34]
  GI50: 72.1 µM (inactive)
[35]
  GI50: 64.6 µM (inactive)
[36]
  GI50: > 100 µM (inactive)
[37]
  GI50: 36.5 µM (inactive)
[38]
  GI50: 97.9 µM (inactive)
[39]
  GI50: 64.4 µM (inactive)
[40]
  GI50: 85.1 µM (inactive)
[41]
  GI50: 22.9 µM (inactive)
[42]
  GI50: 33.2 µM (inactive)
[43]
  GI50: > 100 µM (inactive)
[44]
  GI50: > 100 µM (inactive)
[45]
  GI50: 78.9 µM (inactive)
[46]
  GI50: 21.4 µM (inactive)
[47]
  GI50: > 100 µM (inactive)
[48]
  GI50: 22.4 µM (inactive)
[49]
  GI50: 39.4 µM (inactive)
[50]
  GI50: 36.1 µM (inactive)

## COc1cc2c(cc1OC)C1C[C@]3(CCN1CC2)C(=O)N(c1ccccc1)C(=O)N3C(C)=O (stereo not given in full)
[1]
  GI50: > 200 µM (inactive)
[4]
  GI50: > 200 µM (inactive)
[5]
  GI50: > 200 µM (inactive)
[6]
  GI50: > 200 µM (inactive)
[8]
  GI50: > 200 µM (inactive)
[9]
  GI50: > 200 µM (inactive)
[11]
  GI50: > 200 µM (inactive)
[12]
  GI50: > 200 µM (inactive)
[14]
  GI50: > 200 µM (inactive)
[51]
  GI50: > 200 µM (inactive)
[52]
  GI50: > 200 µM (inactive)
[15]
  GI50: > 200 µM (inactive)
[16]
  GI50: > 200 µM (inactive)
[17]
  GI50: > 200 µM (inactive)
[18]
  GI50: > 200 µM (inactive)
[19]
  GI50: > 200 µM (inactive)
[20]
  GI50: > 200 µM (inactive)
[21]
  GI50: > 200 µM (inactive)
[22]
  GI50: > 200 µM (inactive)
[23]
  GI50: > 200 µM (inactive)
[24]
  GI50: > 200 µM (inactive)
[26]
  GI50: > 200 µM (inactive)
[27]
  GI50: > 200 µM (inactive)
[29]
  GI50: > 200 µM
[30]
  GI50: > 200 µM (inactive)
[53]
  GI50: > 200 µM (inactive)
[34]
  GI50: > 200 µM (inactive)
[35]
  GI50: > 200 µM (inactive)
[36]
  GI50: > 200 µM (inactive)
[37]
  GI50: > 200 µM (inactive)
[39]
  GI50: > 200 µM (inactive)
[40]
  GI50: > 200 µM (inactive)
[54]
  GI50: > 200 µM (inactive)
[42]
  GI50: > 200 µM (inactive)
[44]
  GI50: > 200 µM (inactive)
[45]
  GI50: > 200 µM (inactive)
[46]
  GI50: > 200 µM (inactive)
[47]
  GI50: > 200 µM (inactive)

## O=C(O)CCCc1ccccc1 [SODIUM PHENYLBUTYRATE]
[1]
  GI50: 144 µM (inactive)
[4]
  GI50: 162 µM (inactive)
[6]
  GI50: 193 µM (inactive)
[7]
  GI50: 172 µM (inactive)
[10]
  GI50: 182 µM (inactive)
[55]
  GI50: 118 µM (inactive)
[19]
  GI50: 177 µM (inactive)
[21]
  GI50: 126 µM (inactive)
[25]
  GI50: 63.5 µM (inactive)
[29]
  GI50: 137 µM
[32]
  GI50: 144 µM (inactive)
[38]
  GI50: 110 µM (inactive)
[54]
  GI50: 102 µM (inactive)
[41]
  GI50: 117 µM (inactive)
[44]
  GI50: 80.2 µM (inactive)
[46]
  GI50: 189 µM (inactive)
[50]
  GI50: 102 µM (inactive)
